Reference: PubChem BioAssay (NCI)
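Test compounds were applied to cells in 96-well plates for 48 hours at 5 doses. GI50 marks 50% less growth. TGI: concentration producing complete growth inhibition.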

Key:
Test in all cases: growth of human tumour cells (NCI), 48 h
SK-MEL-28 melanoma = test system: SK-MEL-28 melanoma
EKVX NSCLC = test system: EKVX NSCLC
HOP-92 NSCLC = test system: HOP-92 NSCLC
OVCAR-5 ovarian = test system: OVCAR-5 ovarian
SF-268 CNS = test system: SF-268 CNS
SK-MEL-5 melanoma = test system: SK-MEL-5 melanoma
SNB-19 CNS = test system: SNB-19 CNS
NCI-H522 lung = test system: NCI-H522 lung
RXF 393 renal = test system: RXF 393 renal
OVCAR-4 ovarian = test system: OVCAR-4 ovarian

Row | Structure (SMILES) | GI50 (SK-MEL-28 melanoma) | TGI (SK-MEL-28 melanoma) | GI50 (EKVX NSCLC) | TGI (EKVX NSCLC) | GI50 (HOP-92 NSCLC) | TGI (HOP-92 NSCLC) | GI50 (OVCAR-5 ovarian) | TGI (OVCAR-5 ovarian) | GI50 (SF-268 CNS) | TGI (SF-268 CNS) | GI50 (SK-MEL-5 melanoma) | TGI (SK-MEL-5 melanoma) | GI50 (SNB-19 CNS) | TGI (SNB-19 CNS) | GI50 (NCI-H522 lung) | TGI (NCI-H522 lung) | GI50 (RXF 393 renal) | TGI (RXF 393 renal) | GI50 (OVCAR-4 ovarian) | TGI (OVCAR-4 ovarian)
1 | O=C1c2cccnc2C(=O)c2c1c(C(=O)OCCCN1CCOCC1)c1ccccn21 | 0.0658 µM | 4.57 µM | 0.0758 µM | 1.75 µM | 0.151 µM | 0.929 µM | 0.0794 µM | 4.73 µM | < 0.01 µM | 10.7 µM | < 0.0114 µM | 0.0951 µM | < 0.01 µM | 4.13 µM | < 0.01 µM | < 0.0127 µM | < 0.01 µM | 0.0235 µM | 0.94 µM | 3.99 µM
2 | CC(C)(C)n1cc(-c2ccnc(NCCNS(=O)(=O)c3ccc(Br)cc3)c2)c(-c2cccc(O)c2)n1 | 1.75 µM | 3.26 µM | 2.27 µM | 6.88 µM | 1.51 µM | 3.86 µM | 1.78 µM | 3.53 µM | 2.04 µM | 5.96 µM | 1.36 µM | 2.67 µM | 2.29 µM | 5.67 µM | 1.79 µM | 4.04 µM | 1.49 µM | 3.23 µM | 1.55 µM | 3.59 µM
3 | Oc1cc2cc(-c3ccccc3)[nH]c2c2ccccc12 | – | > 100 µM | – | > 100 µM | – | > 95.6 µM | – | > 100 µM | – | > 100 µM | – | 27.2 µM | – | > 70.2 µM | – | 37.4 µM | – | > 78.3 µM | – | > 100 µM
4 | O=C(OCc1ccccc1CN1CCOCC1)c1ccc(Br)cc1 | – | > 100 µM | – | > 100 µM | – | > 100 µM | – | > 100 µM | – | > 100 µM | – | 41.9 µM | – | > 100 µM | – | > 100 µM | – | > 100 µM | – | > 100 µM
5 | c1ccc2c(c1)nc(NCCN1CCNCC1)c1c3ccccc3[nH]c21 | 1.37 µM | 2.8 µM | 0.742 µM | 4.38 µM | 0.43 µM | 2.62 µM | 0.477 µM | 3.15 µM | 0.39 µM | 2.01 µM | 1.27 µM | 2.61 µM | 0.381 µM | 3.15 µM | 0.22 µM | 1.07 µM | 0.438 µM | 2.04 µM | 0.379 µM | 2.24 µM
6 | CN1CCCC1c1cccnc1.O=C(O)c1ccccc1O.O=C([O-])c1ccccc1[OH2+].O=C([O-])c1ccccc1[OH2+].O=C([O-])c1ccccc1[OH2+].[Mn+2] (stereo not given) | > 100 µM | > 100 µM | > 100 µM | > 100 µM | > 100 µM | > 100 µM | 63.5 µM | > 100 µM | 22.3 µM | 73.4 µM | > 100 µM | > 100 µM | > 100 µM | > 100 µM | 12.1 µM | 27.7 µM | > 100 µM | > 100 µM | > 100 µM | > 100 µM
7 | COc1ccc(S(=O)(=O)N/N=C/C(=O)O)cc1 | – | > 1250 µM | – | > 1250 µM | – | 1110 µM | – | > 1150 µM | – | 975 µM | – | 894 µM | – | > 1250 µM | – | 644 µM | – | 1150 µM | – | > 1210 µM
8 | O=C(CCCCCCCCC(=O)OCC1OC(n2cnc3c(=O)[nH]cnc32)C(O)C1O)OCC1OC(n2cnc3c(=O)[nH]cnc32)C(O)C1O (stereo not given) | – | > 100 µM | – | > 100 µM | – | > 100 µM | – | > 100 µM | – | > 100 µM | – | > 100 µM | – | > 100 µM | – | > 100 µM | – | > 100 µM | – | > 100 µM
9 | CC[C@]12C=CCN3CC[C@]4(C(=C(C(=O)OC)C1)Nc1cc(O)ccc14)[C@@H]32 | 17 µM | 42.5 µM | 24.6 µM | > 100 µM | 11.6 µM | 26.1 µM | 19.8 µM | 57 µM | 20.7 µM | 53.2 µM | 14.8 µM | 28.3 µM | 18 µM | 44.2 µM | 15.1 µM | 55.2 µM | 13.3 µM | 28.9 µM | 22 µM | 76.4 µM
